Reference: the Kinase Knowledgebase extract (Sharma et al. 2016)

Target: PIK3CG (human) (UniProt P48736)
Test: Assessment of PIK3CG Kinase Activity

PIK3CG (human), sequence (P48736 whole entry, looked up): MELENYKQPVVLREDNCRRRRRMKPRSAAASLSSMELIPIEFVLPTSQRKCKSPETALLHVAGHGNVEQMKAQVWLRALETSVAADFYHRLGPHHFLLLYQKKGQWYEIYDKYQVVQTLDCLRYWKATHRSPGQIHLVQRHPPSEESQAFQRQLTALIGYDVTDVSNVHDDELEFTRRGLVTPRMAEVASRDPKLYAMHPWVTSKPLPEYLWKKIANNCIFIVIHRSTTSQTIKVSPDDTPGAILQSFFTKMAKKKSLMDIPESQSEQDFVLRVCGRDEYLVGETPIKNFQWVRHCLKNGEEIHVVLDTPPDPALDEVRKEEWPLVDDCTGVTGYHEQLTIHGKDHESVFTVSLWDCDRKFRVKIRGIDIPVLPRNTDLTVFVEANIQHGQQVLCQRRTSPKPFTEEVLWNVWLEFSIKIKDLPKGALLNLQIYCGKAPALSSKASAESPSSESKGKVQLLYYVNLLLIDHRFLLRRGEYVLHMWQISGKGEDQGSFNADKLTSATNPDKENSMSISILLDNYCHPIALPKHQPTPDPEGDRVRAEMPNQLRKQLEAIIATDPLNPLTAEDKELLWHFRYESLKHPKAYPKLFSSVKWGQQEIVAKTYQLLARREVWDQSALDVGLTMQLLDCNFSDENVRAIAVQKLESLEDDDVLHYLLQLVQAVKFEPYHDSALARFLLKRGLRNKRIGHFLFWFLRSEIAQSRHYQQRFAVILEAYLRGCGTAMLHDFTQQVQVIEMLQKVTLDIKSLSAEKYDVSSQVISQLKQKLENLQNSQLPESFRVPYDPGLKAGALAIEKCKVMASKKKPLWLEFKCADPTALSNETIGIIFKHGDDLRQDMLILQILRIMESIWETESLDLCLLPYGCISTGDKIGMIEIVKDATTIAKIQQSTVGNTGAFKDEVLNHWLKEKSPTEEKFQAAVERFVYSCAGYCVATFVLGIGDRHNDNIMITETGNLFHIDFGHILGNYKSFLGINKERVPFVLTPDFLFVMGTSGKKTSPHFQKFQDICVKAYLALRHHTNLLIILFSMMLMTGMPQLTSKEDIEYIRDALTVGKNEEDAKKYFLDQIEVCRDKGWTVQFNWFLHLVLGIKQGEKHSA

IC50, < 800 nM:
CC(=O)Nc1nc2c(s1)-c1c(cnn1-c1ccc(C(=O)N[C@H]3CC[C@H](NC(=O)Cc4ccccc4)CC3)cc1)CC2
CC(=O)Nc1nc2c(s1)-c1c(cnn1-c1ccc(C#N)cc1)CC2
CC(=O)Nc1nc2c(s1)-c1nn(C(=O)c3ccco3)cc1CC2
CC(=O)Nc1nc2c(s1)-c1c(cnn1-c1cccc(C(=O)O)c1)CC2
CC(=O)Nc1nc2c(s1)-c1c(cnn1-c1ccc(S(=O)(=O)N(C)C)cc1)CC2
CC(=O)Nc1nc2c(s1)-c1c(cnn1-c1ccc(C(=O)N[C@H](CC(C)C)C(N)=O)cc1Cl)CC2
CC(=O)Nc1nc2c(s1)-c1c(c(C(C)C)nn1-c1ccc(C(=O)N[C@H]3CC[C@@H](N4CCCC4)CC3)cc1Cl)CC2
CCN(CCO)C(=O)c1ccc(-n2ncc3c2-c2sc(NC(C)=O)nc2CC3)cc1
CN(C)C(=O)Nc1nc2c(s1)-c1c(cnn1-c1ccccc1Cl)C2
NC(=O)[C@@H]1CCCN1CC(=O)Nc1nc2c(s1)-c1c(cnn1-c1ccccc1)CC2
COC(=O)Nc1nc2c(s1)-c1c(cnn1-c1ccccc1)CC2
CC(=O)Nc1nc2c(s1)-c1c(cnn1-c1ccc(C(=O)N3CCC(NC(=O)Cc4ccccc4)CC3)cc1)CC2
CCc1ccccc1-n1ncc2c1-c1sc(NC(C)=O)nc1C2
CC(=O)Nc1nc2c(s1)-c1c(cnn1-c1ccc(C(=O)N(C)CC(=O)N3CCOCC3)cc1)CC2
O=C(Nc1nc2c(s1)-c1nc(-c3ccccc3)ncc1CC2)N1CCCCC1
CC(=O)Nc1nc2c(s1)-c1nc(NCCCC(=O)O)ncc1CC2
CC(=O)Nc1nc2c(s1)-c1c(cnn1-c1ccc(CC(=O)NCC3OCCO3)cc1)CC2
CS(=O)(=O)c1cccc(Nc2nc3c(s2)-c2c(cnn2-c2ccccc2)CC3)c1
CC(=O)Nc1nc2c(s1)-c1c(cnn1-c1ccc(C(=O)NC3CCC4(CC3)OCCO4)cc1)CC2
CC(=O)Nc1nc2c(s1)-c1c(cnn1-c1cccc(C)c1)C2
CC(=O)Nc1nc2c(s1)-c1c(cnn1-c1ccc(C)cc1)CC2
CC(=O)Nc1nc2c(s1)-c1c(cnn1-c1cccc(Cl)c1)C2
CC(=O)Nc1nc2c(s1)-c1nc(-c3ccccc3Cl)ncc1C2
CC(=O)Nc1nc2c(s1)-c1c(c([C@H]3CCCO3)nn1-c1ccccc1C(F)(F)F)CC2
CC(=O)Nc1nc2c(s1)-c1c(cnn1C1CCN(C(=O)C(F)(F)F)CC1)CC2
CC(=O)Nc1nc2c(s1)-c1c(cnn1-c1ccc(C(=O)Nc3ccc(C4CCN(C)CC4)cc3)cc1)CC2
CN1CCN(C(=O)Nc2nc3c(s2)-c2nc(-c4ccccc4)ncc2CC3)CC1
COc1ccccc1-n1ncc2c1-c1sc(NC(C)=O)nc1C2
CC(=O)Nc1nc2c(s1)-c1c(cnn1C(=O)C1CC1)CC2
CC(=O)Nc1nc2c(s1)-c1nc(-c3ccccc3Cl)nc(O)c1CC2
CC(=O)Nc1nc2c(s1)-c1c(cnn1-c1ccc(CC(=O)NCCCN3CCOCC3)cc1)CC2
CC(=O)Nc1nc2c(s1)-c1c(cnn1-c1ccc(CC(=O)NCC#Cc3ccncc3)cc1)CC2
CC(=O)Nc1nc2c(s1)-c1c(c(C(C)C)nn1-c1ccc(C(=O)N[C@H]3CC[C@H](N4CCCC4)CC3)cc1Cl)CC2
CC(=O)Nc1nc2c(s1)-c1c(cnn1-c1ccc(C(=O)N[C@H]3CC[C@@H](N4C[C@@H](C)O[C@@H](C)C4)CC3)cc1)CC2
CCN(CCO)C(=O)c1nn(-c2ccccc2)c2c1CCc1nc(NC(C)=O)sc1-2
CC(=O)Nc1nc2c(s1)-c1c(cnn1-c1ccccc1C)CC2
CC(=O)Nc1nc2c(s1)-c1c(cnn1-c1ccc(S(C)(=O)=O)cc1)CC2
CC(=O)Nc1nc2c(s1)-c1c(cnn1-c1ccc(C(=O)NCCC3CCCN3C)cc1)CC2 (configuration not stated)
CC(=O)Nc1nc2c(s1)-c1nc(N3CCCC(C)(C)C3)ncc1CC2
CC(=O)Nc1nc2c(s1)-c1c(cnn1C(C)C)CC2
CC(=O)Nc1nc2c(s1)-c1c(cnn1-c1ccccc1C)C2
CC(=O)Nc1nc2c(s1)-c1c(c([C@@H]3CCCO3)nn1-c1ccccc1Cl)CC2
CC(C)(C)NC(=O)NCC#CCNC(=O)Nc1nc2c(s1)-c1c(cnn1-c1ccccc1)CC2
CC(=O)Nc1nc2c(s1)-c1c(cnn1-c1ccc(C(=O)N3CCOCC3)cc1Cl)CC2
CC(=O)Nc1nc2c(s1)-c1nn(C(=O)c3ccccc3Cl)cc1CC2
CC(=O)Nc1nc2c(s1)-c1c(cnn1-c1ccc(C(=O)N[C@@H](C(N)=O)[C@H](C)O)cc1Cl)CC2
CC(=O)Nc1nc2c(s1)-c1c(c(-c3ccccn3)nn1-c1ccccc1)CC2
CC(=O)Nc1nc2c(s1)-c1nn(-c3ccc(C(=O)N[C@H]4CC[C@H](N5CCCC5)CC4)cc3)c(-c3ccco3)c1CC2
CC(=O)Nc1nc2c(s1)-c1c(cnn1-c1ccc(CC(=O)Nc3cc(O)[nH]n3)cc1)CC2
CC(=O)Nc1nc2c(s1)-c1nc(C(C)C)ncc1CC2
CC(=O)Nc1nc2c(s1)-c1c(cnn1-c1ccc(C(=O)NCc3ncc[nH]3)cc1)CC2
CC(=O)Nc1nc2c(s1)-c1nc(-c3ccccn3)ncc1CC2
CC(=O)Nc1nc2c(s1)-c1c(cnn1-c1ccc(C(=O)N[C@H]3CC[C@H](N4CCCC4)CC3)cc1)CC2
CC(=O)Nc1nc2c(s1)-c1c(c(C(F)(F)F)nn1-c1ccccc1)CC2
CC(=O)Nc1nc2c(s1)-c1c(c(C(=O)N3CCSC3)nn1-c1ccccc1)CC2
CC(=O)Nc1nc2c(s1)-c1c(cnn1-c1ccc(C(=O)N3CCCC(=O)CC3)cc1)CC2
CC(=O)Nc1nc2c(s1)-c1c(cnn1-c1ccc(C(=O)N3CCC[C@@H]3C(N)=O)cc1)CC2
CC(=O)Nc1nc2c(s1)-c1c(cnn1-c1ccc(C(=O)N[C@@H](C(N)=O)C(C)C)cc1Cl)CC2
CC(=O)Nc1nc2c(s1)-c1c(cnn1-c1ccc(C(=O)NCCC(=O)O)cc1)CC2
CC(=O)Nc1nc2c(s1)-c1c(cnn1-c1ccc(CC(=O)N3CCN(C(C)=O)CC3)cc1)CC2
COCc1nn(-c2ccc(C(=O)N(C)Cc3ccncc3)cc2Cl)c2c1CCc1nc(NC(C)=O)sc1-2
CNC(=O)Nc1nn(-c2ccccc2Cl)c2c1CCc1nc(NC(C)=O)sc1-2
CC(=O)Nc1nc2c(s1)-c1nc(C3CC3)ncc1CC2
CC(=O)NCCCC[C@H](NC(=O)c1ccc(-n2ncc3c2-c2sc(NC(C)=O)nc2CC3)c(Cl)c1)C(N)=O
CCCCn1ncc2c1-c1sc(NC(C)=O)nc1CC2
CC(=O)Nc1nc2c(s1)-c1nc(Cc3ccccc3)ncc1CC2
CC(=O)Nc1nc2c(s1)-c1c(cnn1-c1ccccc1Cl)CC2
CC(=O)Nc1nc2c(s1)-c1c(cnn1-c1cccc(C)c1)CC2
CC(=O)Nc1nc2c(s1)-c1c(cnn1-c1ccc(C(=O)NC3CCCC3)cc1)CC2
CC(=O)Nc1nc2c(s1)-c1c(cnn1-c1ccc(C(=O)N[C@@H](Cc3cc4ccccc4[nH]3)C(N)=O)cc1Cl)CC2
CN(C)CCCC(=O)Nc1nc2c(s1)-c1c(cnn1-c1ccccc1)C2
CC(=O)Nc1nc2c(s1)-c1c(cnn1C(=O)C(C)C)CC2
CC(=O)Nc1nc2c(s1)-c1c(cnn1-c1ccc(C(=O)N3CCN(c4ccncc4)CC3)cc1)CC2
CC(=O)Nc1nc2c(s1)-c1nc(C(C)(C)C)ncc1CC2
COC(=O)Nc1nn(-c2ccccc2Cl)c2c1CCc1nc(NC(C)=O)sc1-2
CC(=O)Nc1nc2c(s1)-c1c(cnn1-c1ccc(C(=O)Nc3nc4ccccc4[nH]3)cc1)CC2
CC(=O)Nc1nc2c(s1)-c1nn(-c3ccc(C(=O)NC4CCN(C)CC4)cc3Cl)c(-c3ccco3)c1CC2
CC(=O)Nc1nc2c(s1)-c1c(cnn1-c1ccc(C(=O)N[C@H]3CCc4nc(N)sc4C3)cc1)CC2
CC(=O)Nc1nc2c(s1)-c1c(c(-c3ccco3)nn1-c1ccc(Br)cc1C(F)(F)F)CC2
CNC(=O)Nc1nc2c(s1)-c1nc(N(C)C)ncc1CC2
CC(=O)Nc1nc2c(s1)-c1c(cnn1-c1ccccc1)CC2
CC(=O)Nc1nc2c(s1)-c1c(cnn1-c1ccc(CC(=O)N3CCC(N4CCNC4=O)CC3)cc1)CC2
CC(=O)Nc1nc2c(s1)-c1nc(C3CCCCC3)ncc1CC2
CC(=O)Nc1nc2c(s1)-c1c(c(-c3ccco3)nn1-c1ccc(C(=O)N[C@H]3CC[C@@H](N4CCCC4)CC3)cc1Cl)CC2
COCc1nn(-c2ccccc2)c2c1CCc1nc(NC(C)=O)sc1-2
CN(C)C(=O)Nc1nc2c(s1)-c1nc(-c3ccccc3)ncc1CC2
CC(=O)Nc1nc2c(s1)-c1nc(-c3ccc(C)cc3)ncc1CC2
CC(=O)Nc1nc2c(s1)-c1c(cnn1-c1ccc(C(=O)NCC3CC3)cc1)CC2
CC(=O)Nc1nc2c(s1)-c1c(cnn1-c1ccc(C(=O)NCc3ccccc3C(N)=O)cc1)CC2
CC(=O)Nc1nc2c(s1)-c1c(cnn1-c1ccc(CC(=O)N3CCC(O)CC3)cc1)CC2
CC(=O)Nc1nc2c(s1)-c1c(c([C@H]3CCCO3)nn1-c1ccc(C(=O)N[C@H]3CC[C@@H](N4CCCC4)CC3)cc1Cl)CC2
COc1ccc(-n2ncc3c2-c2sc(NC(C)=O)nc2CC3)cc1
COC(=O)c1nn(-c2ccccc2C)c2c1CCc1nc(NC(C)=O)sc1-2
CC(=O)Nc1nc2c(s1)-c1c(cnn1-c1ccc(CC(=O)NCCN3CCNC3=O)cc1)CC2
COc1cccc(-c2ncc3c(n2)-c2sc(NC(C)=O)nc2CC3)c1
CC(=O)Nc1nc2c(s1)-c1cc(NC(=O)C(C)C)ccc1CC2
CC(=O)Nc1nc2c(s1)-c1c(c(C(=O)O)nn1-c1ccccc1)CC2
